Test: Test of stability of all-trans-retinol in ethanol during preservation at 50° C. (residual retinol by HPLC)
Assay type: physicochemical
Details: retinol 0.3% w/v in ethanol without stabilizer, 20 days of storage at 50° C., aerobic medium
Description: The stability of a retinoid is defined in accordance with the present invention by the percentage of retinoid which remains in its original form after the composition containing the retinoid has been stored for a given period and at a given temperature.
The study conditions are the following:
PEI at 0.25, 0.5 and 1% (by weight/volume) in ethanol;
All-trans-retinol marketed by Fluka at 0.3% (by weight/volume) in ethanol;
Aerobic medium with 55 vol % air and 45 vol % ethanol;
Preservation at 50° C. in an oven;
The level of residual retinol after one month of preservation at 50° C. in an aerobic medium (55% of volume of air) is monitored by HPLC (on a Spherisorb ODS1 C18 column) by elution with an H2O/CH3CO2H/CH3CO2NH4/acetonitrile:
The level of residual retinol after two months of storage at 50° C. in an aerobic medium (55 vol % air) is monitored by HPLC (same conditions as in Test 1).
The level of residual retinol after one month of storage at 50° C. in an aerobic medium (55 vol % air) is monitored by HPLC (same conditions as in Test 1).
From an alcoholic solution of retinol at 0.26%, the level of residual retinol after several days of storage of the formulae at 50° C. in aerobic medium (55 vol % of air) is monitored by HPLC. […]

CC1=C(/C=C/C(C)=C/C=C/C(C)=C/CO)C(C)(C)CCC1 [retinol, All-trans-retinol] gave a Degradation of retinol of roughly 99%.

Source: patent US6344206B1, “Combination of a retinoid with a polyamine polymer” (L'Oreal, priority 1997, dated 2002)
